Measurements reported in the CombiSolv-Exp solvation set (Vermeire and Green 2021).

Experiment: solvent given as SMILES

With `C=CCCCCCCCCCC` as the compound, how does the “solvation free energy, 298 K” value (in CN(C)C=O) read?
Its value is -6.25 kcal/mol.

And the “solvation free energy, 298 K” value (in O)?
The value was 2.58 kcal/mol.

Which results are given for `Nc1ccccc1`?
solvation free energy, 298 K (in CC(C)=O): -7.84 kcal/mol; solvation free energy, 298 K (in CC(C)CC(C)(C)C): -5.2 kcal/mol; solvation free energy, 298 K (in CCCCCC): -5.43 kcal/mol; solvation free energy, 298 K (in CCCCCCC): -5.38 kcal/mol; solvation free energy, 298 K (in CCCCCCCC): -4.84 kcal/mol; solvation free energy, 298 K (in CCCCCCCCCCCCCCCC): -5.36 kcal/mol; solvation free energy, 298 K (in CCCCCl): -6.67 kcal/mol; solvation free energy, 298 K (in CCOC(C)=O): -7.49 kcal/mol; solvation free energy, 298 K (in O): -5.77 kcal/mol

With `CCC` as the compound, how does the “solvation free energy, 298 K” value (in Brc1ccccc1) read?
The value was -1.43 kcal/mol.

What about the “solvation free energy, 298 K” value (in C1CCC2CCCCC2C1) of the same compound?
The value was -1.52 kcal/mol.

What about the “solvation free energy, 298 K” value (in C1COCCO1) of the same compound?
The value was -1.24 kcal/mol.

What about the “solvation free energy, 298 K” value (in CC1COC(=O)O1) of the same compound?
The value was -0.58 kcal/mol.

What about the “solvation free energy, 298 K” value (in CC(=O)N(C)C) of the same compound?
Its value is -1.09 kcal/mol.

And the “solvation free energy, 298 K” value (in CC(C)(C)O)?
The value was -1.39 kcal/mol.

What about the “solvation free energy, 298 K” value (in CC(C)=O) of the same compound?
Its value is -1.36 kcal/mol.

What about the “solvation free energy, 298 K” value (in CC(C)CCO) of the same compound?
The value was -1.33 kcal/mol.

And the “solvation free energy, 298 K” value (in CC(C)CO)?
The value was -1.32 kcal/mol.

And the “solvation free energy, 298 K” value (in CC(C)O)?
The value was -1.21 kcal/mol.

What about the “solvation free energy, 298 K” value (in CC(CC(C)(C)C)CC(C)(C)CC(C)(C)C) of the same compound?
Its value is -2.21 kcal/mol.

And the “solvation free energy, 298 K” value (in CCC(C)(C)O)?
The value was -1.42 kcal/mol.

What about the “solvation free energy, 298 K” value (in CCC(C)CO) of the same compound?
Its value is -1.32 kcal/mol.

And the “solvation free energy, 298 K” value (in CCC(O)CC)?
Its value is -1.34 kcal/mol.

And the “solvation free energy, 298 K” value (in CCCC(C)O)?
Its value is -1.34 kcal/mol.

And the “solvation free energy, 298 K” value (in CCCCC)?
The value was -1.81 kcal/mol.

And the “solvation free energy, 298 K” value (in CCCCCC)?
The value was -1.8 kcal/mol.

And the “solvation free energy, 298 K” value (in CCCCCCC)?
The value was -1.77 kcal/mol.

What about the “solvation free energy, 298 K” value (in CCCCCCCC) of the same compound?
The value was -1.74 kcal/mol.

And the “solvation free energy, 298 K” value (in CCCCCCCCC)?
Its value is -1.71 kcal/mol.

And the “solvation free energy, 298 K” value (in CCCCCCCCCC)?
Its value is -1.67 kcal/mol.

What about the “solvation free energy, 298 K” value (in CCCCCCCCCCCC) of the same compound?
Its value is -1.54 kcal/mol.

What about the “solvation free energy, 298 K” value (in CCCCCCCCCCCCC) of the same compound?
The value was -1.54 kcal/mol.

What about the “solvation free energy, 298 K” value (in CCCCCCCCCCCCCC) of the same compound?
The value was -1.49 kcal/mol.

What about the “solvation free energy, 298 K” value (in CCCCCCCCCCCCCCC) of the same compound?
The value was -1.48 kcal/mol.

And the “solvation free energy, 298 K” value (in CCCCCCCCCCCCCCCC)?
The value was -1.42 kcal/mol.

And the “solvation free energy, 298 K” value (in CCCCCCCCO)?
Its value is -1.28 kcal/mol.

What about the “solvation free energy, 298 K” value (in CCCCCCCO) of the same compound?
Its value is -1.22 kcal/mol.

And the “solvation free energy, 298 K” value (in CCCCCO)?
Its value is -1.32 kcal/mol.

What about the “solvation free energy, 298 K” value (in CCCCO) of the same compound?
The value was -1.35 kcal/mol.

And the “solvation free energy, 298 K” value (in CCCO)?
The value was -1.32 kcal/mol.

And the “solvation free energy, 298 K” value (in CCO)?
The value was -1.24 kcal/mol.

What about the “solvation free energy, 298 K” value (in CN1CCCC1=O) of the same compound?
The value was -0.89 kcal/mol.

What about the “solvation free energy, 298 K” value (in CN(C)C=O) of the same compound?
Its value is -0.88 kcal/mol.

And the “solvation free energy, 298 K” value (in CN(C)P(=O)(N(C)C)N(C)C)?
Its value is -1.15 kcal/mol.

What about the “solvation free energy, 298 K” value (in CO) of the same compound?
Its value is -1.15 kcal/mol.

What about the “solvation free energy, 298 K” value (in COCCOCCO) of the same compound?
Its value is -0.77 kcal/mol.

What about the “solvation free energy, 298 K” value (in COCCOCCOC) of the same compound?
Its value is -1.24 kcal/mol.

And the “solvation free energy, 298 K” value (in COCCOCCOCCOC)?
The value was -0.95 kcal/mol.

And the “solvation free energy, 298 K” value (in COCCOCCOCCOCCOC)?
Its value is -0.98 kcal/mol.

And the “solvation free energy, 298 K” value (in CS(C)=O)?
The value was -0.36 kcal/mol.

And the “solvation free energy, 298 K” value (in Cc1ccc(C)cc1)?
Its value is -1.56 kcal/mol.

What about the “solvation free energy, 298 K” value (in Cc1cccc(C)c1) of the same compound?
Its value is -1.62 kcal/mol.

And the “solvation free energy, 298 K” value (in Cc1ccccc1C)?
Its value is -1.52 kcal/mol.

And the “solvation free energy, 298 K” value (in ClC(Cl)(Cl)Cl)?
The value was -1.83 kcal/mol.

What about the “solvation free energy, 298 K” value (in Clc1ccccc1) of the same compound?
The value was -1.61 kcal/mol.

What about the “solvation free energy, 298 K” value (in Ic1ccccc1) of the same compound?
The value was -1.51 kcal/mol.

What about the “solvation free energy, 298 K” value (in N#Cc1ccccc1) of the same compound?
The value was -1.11 kcal/mol.

What about the “solvation free energy, 298 K” value (in NC=O) of the same compound?
Its value is 0.19 kcal/mol.

What about the “solvation free energy, 298 K” value (in Nc1ccccc1) of the same compound?
The value was -0.79 kcal/mol.

What about the “solvation free energy, 298 K” value (in O) of the same compound?
The value was 1.96 kcal/mol.

What about the “solvation free energy, 298 K” value (in OC1CCCCC1) of the same compound?
The value was -1.1 kcal/mol.

And the “solvation free energy, 298 K” value (in OCCCOCCCO)?
The value was -0.57 kcal/mol.

What about the “solvation free energy, 298 K” value (in OCc1ccccc1) of the same compound?
Its value is -0.84 kcal/mol.

What about the “solvation free energy, 298 K” value (in c1ccccc1) of the same compound?
Its value is -1.61 kcal/mol.

For `CCOCCOC(=O)c1ccccc1C(=O)OCCOCC`, which “solvation free energy, 298 K” value (in O) is on record?
The value was -13.4 kcal/mol.

Which “solvation free energy, 298 K” value (in CCCCCC) does the source give for `Cc1ccc(O)c(O)c1` here?
Its value is -6.99 kcal/mol.

And the “solvation free energy, 298 K” value (in CCCCCCC)?
The value was -7.05 kcal/mol.

What about the “solvation free energy, 298 K” value (in CCCCCCCC) of the same compound?
Its value is -7.02 kcal/mol.

What about the “solvation free energy, 298 K” value (in Cc1ccc(C)cc1) of the same compound?
Its value is -9.05 kcal/mol.

And the “solvation free energy, 298 K” value (in Cc1cccc(C)c1)?
Its value is -9.05 kcal/mol.

And the “solvation free energy, 298 K” value (in Cc1ccccc1C)?
Its value is -9.05 kcal/mol.

Which “solvation free energy, 298 K” value (in CCCCCCCCO) does the source give for `Clc1ccc(-c2ccc(Cl)c(Cl)c2Cl)cc1Cl` here?
Its value is -12.9 kcal/mol.

What does the source list for `Brc1cc(Br)c(Br)cc1Br`?
solvation free energy, 298 K (in CCCCCCCCC=CCCCCCCCC(=O)OCC(COC(=O)CCCCCCCC=CCCCCCCCC)OC(=O)CCCCCCCC=CCCCCCCCC): -9.71 kcal/mol; solvation free energy, 298 K (in O): -2.54 kcal/mol

Which “solvation free energy, 298 K” value (in O) does the source give for `CCCNCCC` here?
The value was -3.65 kcal/mol.

With `CCCC(=O)OCCC(C)CCC=C(C)C` (stereo not given) as the compound, how does the “solvation free energy, 298 K” value (in O) read?
The value was -2.73 kcal/mol.

With `Cc1ccc(Br)cc1` as the compound, how does the “solvation free energy, 298 K” value (in O) read?
The value was -1.39 kcal/mol.

For `COc1ccc(C=O)cc1O`, which “solvation free energy, 298 K” value (in O) is on record?
The value was -9.04 kcal/mol.

With `c1ccc(Cn2ccnc2)cc1` as the compound, how does the “solvation free energy, 298 K” value (in O) read?
Its value is -7.63 kcal/mol.

With `CC(CC(C)(C)C)CC(C)(C)CC(C)(C)C` (stereo not given) as the compound, how does the “solvation free energy, 298 K” value (in O) read?
Its value is 4.46 kcal/mol.

For `C1=CCCC1`, which “solvation free energy, 298 K” value (in CN1CCCC1=O) is on record?
Its value is -2.84 kcal/mol.

And the “solvation free energy, 298 K” value (in CN(C)C=O)?
Its value is -2.93 kcal/mol.

And the “solvation free energy, 298 K” value (in CS(C)=O)?
The value was -2.72 kcal/mol.

And the “solvation free energy, 298 K” value (in O)?
The value was 0.54 kcal/mol.

What about the “solvation free energy, 298 K” value (in O=CN1CCOCC1) of the same compound?
Its value is -2.52 kcal/mol.

For `Nc1ccc(N)c2c1C(=O)c1ccccc1C2=O`, which “solvation free energy, 298 K” value (in O) is on record?
The value was -11.8 kcal/mol.

Which “solvation free energy, 298 K” value (in O) does the source give for `CCCCCCCCP(=O)(CCCCCCCC)CCCCCCCC` here?
Its value is -15.5 kcal/mol.

With `Clc1cc(Cl)cc(-c2cc(Cl)ccc2Cl)c1` as the compound, how does the “solvation free energy, 298 K” value (in O) read?
Its value is -2.73 kcal/mol.
